The source of these data is patent US20150011623A1, “Pharmaceutical Composition Containing as Active Ingredient Extract From Bark of Liriodendron Tulipifera” (CHO DANG PHARM CO., LTD., priority 2012, published 2015).

Marks after values point to notes of the source that are not given here.

The test has as its system acetic acid inducing stomach ulcer model. Description: acetic acid inducing stomach ulcer model. Format: in vivo, male white rats. Conditions: for gastric lesion area: oral 30 mg/kg once a day for 10 days after operation; for lesion inhibition rate: oral 30 mg/kg once a day for 10 days, vs control group. From the text: Efficacy of extract from bark of Liriodendron tulipifera obtained in Preparation Example 1 has been measured according to acetic acid inducing stomach ulcer model. Only solvent has been administered into control group, while extract from the bark of Liriodendron tulipifera has been administered into experimental group. Further, ranitidine and rebamipide used for drug for treating stomach ulcer have been also administered into experimental group. The experiment has been carried out according to the method disclosed in Okabe and Pfeifferi, Did. Dis. 17, pp. 619-628, 1972. 250 g weights of male white rats have been anesthetized with ether and the stomach has been exposed. 50 μl of 20% acetic acid has been injected into the subserosa in fundus of stomach using microliter syringe. Then, the abdomen of rat has been sutured. The drug has been orally administered into the rats at 10:00 am once a day for 10 days after operation. After 4 hour from final administration, animals have been sacrificed by ether. After removing the stomach of rat, the stomach has been spread out. The lesion area has been measured using the photo from digital camera. Computer program Image J 1.38 (NIH, Bethesda, Md.) has been applied for measuring gastric lesion area (mm^2) The lesion inhibition rate and 50% effective dose (ED50) have been calculated as the same manner of HCl-EtOH model.

Take `CNC(=C[N+](=O)[O-])NCCSCc1ccc(CN(C)C)o1` [ranitidine]: the gastric lesion area is 34.8 ± 4.83* mm^2 and the lesion inhibition rate was found to be 47.1%.
For `O=C(NC(Cc1cc(=O)[nH]c2ccccc12)C(=O)O)c1ccc(Cl)cc1` (stereo not shown) [rebamipide], the gastric lesion area was 40.1 ± 7.43 mm^2 and the lesion inhibition rate is 39.1%.
